Bridge positions count the residues as written; N and C are the ends. Peptide text beside a SMILES is read from it.
How the values were obtained:
[1] = system: dopaminergic TH-positive neurons injured with MPP+; experiment: Neuroprotective effect on dopaminergic TH-positive neurons injured with MPP+ (primary mesencephalic culture); assay type: cell-based, rat; settings: MPP+ injured TH-positive neurons
Experimental: Neuroprotective effects of compounds 1-26 (SEQ ID NO: 1-26) were tested in an in vitro model in which primary cultures of rat embryonic mesencephalic neurons were stressed with MPP+ , the active metabolite of neurotoxin 1-methyl-4-phenyl-1,2,3,6-tetrahydropyridine (MPTP). MPP+ kills dopaminergic (TH-positive) neurons via a variety of toxic mechanisms, including mitochondrial dysfunction, generation of peroxynitrite, oxidative stress, ER stress and induction of apoptosis.
Culture of mesencephalic neurons. Rat dopaminergic neurons were cultured as described by Visanji et al., 2008. Briefly, the midbrains obtained from 15-day-old rat embryos (Janvier, France) were dissected, and the ventral portion of the mesencephalic flexure, a region of the developing brain rich in dopaminergic neurons, was used for the cell preparations. The midbrain cells were dissociated by trypsinization for 20 min at 37° C. (solution at a final concentration of 0.05% trypsin and 0.02% EDTA). The reaction was stopped by adding Dulbecco's modified Eagle's medium (DMEM) containing DNAase I grade II (0.5 mg/mL) and 10% of fetal calf serum (FCS). Cells were then mechanically dissociated by 3 passages through a 10 ml pipette. Cells were then centrifuged at 180×g for 10 min at +4° C. on a layer of BSA (3.5%) in L15 medium. The cell pellets were re-suspended in a defined culture serum-free medium consisting of Neurobasal (Invitrogen) supplemented with B27 (2%), L-glutamine (2 mM) and 2% of PS solution and 1Ong/ml of Brain-derived neurotrophic factor (BDNF) and 1 ng/mL of Glial-Derived Neurotrophic Factor (GDNF). Viable cells were counted in a Neubauer cytometer using the trypan blue exclusion test. The cells were seeded at a density of 40 000 cells/well in 96 well-plates (pre-coated with poly-L-lysine) and maintained in a humidified incubator at 37° C. in 5% CO2/95% air atmosphere. Half of the medium was changed every 2 days with fresh medium. On 96-wells plates, only 60 wells are used. To avoid any edge effect, the first and last lines and columns were not used for culture and were filled with sterile water.
CDNF as well as linear and macrocyclic compounds […] (SEQ ID NOs: 1-26) were tested. On day 6 of culture, the compounds were dissolved in culture medium and then pre-is incubated with mesencephalic neurons for 4 hours before the MPP+ application. Four hours after the preincubation of the compounds, MPP+ was added to a final concentration of 4 pM, diluted in control medium still in presence of compounds for 48 h.
48 h after intoxication, the cells were fixed by a solution of 4% paraformaldehyde in PBS, pH 7.3 for 20 min at room temperature. The cells were washed twice in PBS, and then permeabilized and non-specific sites were blocked with a solution of PBS containing 0.1% of saponin and 1% FCS for 15 min at room temperature. Next, the cells were incubated with (a) a monoclonal antibody anti-Tyrosine Hydroxylase (TH) produced in mouse at dilution of 1:10000 and with (b) a polyclonal antibody anti-alpha-synuclein (α-syn) antibody produced in rabbit at dilution of 1:400 in PBS containing 1% FCS, 0.1% saponin, for 2 h at room temperature.
48 h after intoxication, the cell culture supernatant was removed, and the cells fixed by a solution of 4% paraformaldehyde in PBS, pH 7.3 for 20 min at room temperature. The cells were washed twice in PBS, and then permeabilized and non-specific sites were blocked with a solution of PBS containing 0.1% of saponin and 1% FCS for 15 min at room temperature. Then, the cells were incubated with a) a monoclonal Anti-Tyrosine Hydroxylase (TH) antibody produced in mouse at dilution of 1:10000 in PBS containing 1% FCS, 0.1% saponin, for 2 hours at room temperature, and b) a polyclonal anti-postsynaptic density protein-95 (PSD-95) antibody produced in rabbit at dilution of 1:200 in PBS containing 1% FCS, 0.1% saponin, for 2 h at room temperature. This antibody stains specifically synapses. […]

human hepatocytes = experiment: In vitro metabolic stability in human hepatocytes; assay type: in vitro ADME; settings: 1 μM, 37° C., up to 60 min
Experimental: The linear or macrocyclic compounds 1-8, 11-14 and 23-26 (SEQ ID NOs: 1-8, 11-14 and 23-26) were incubated in concentration 1 μM with pooled cryopreserved human hepatocytes (mixed gender; 400 pl, 1.0 million viable cells/ml) for different time points (0, 20, 40 or 60 min) at 37° C. The cell density and viability were determined by trypan blue is exclusion method. The incubation was terminated by acetonitrile. The collected samples were centrifuged for 20 min at 2272×g and analyzed. The samples were analyzed by UPLC/PDA with high resolution mass spectrometry (QE-Orbitrap-MS on DDI mode) to monitor disappearance of the compound. Verapramil 1 μM was used as a disappearance rate control. The analytical method was optimized by using the parent compounds for optimum chromatographic properties (peak shape and retention) and mass spectrometric ionization. The Ion chromatograms were extracted from the total ion chromatograms using calculated monoisotopic accurate masses with 5 mDa window. Disappearance was based on LC/MS peak areas, marking 0 min as 100%. The first-order rate constants k (min-1) of the metabolism were obtained from the slope of time versus logarithm (% of remaining compound) plot using Excel software. The in vitro half-life (t1/2) of study compound is defined as: t1/2In2/k. Calculated half-life is based on compound disappearance in human liver hepatocytes.

Structure (SMILES)	potency of macrocyclic peptide versus its linear counterpart [1]	stability in human hepatocytes as compared to linear counterpart (human hepatocytes)
CC[C@H](C)[C@@H]1NC(=O)[C@H](CCCCN)NC(=O)[C@H](CCCCN)NC(=O)[C@H](CC(C)C)NC(=O)[C@H](CCC(=O)O)NC(=O)[C@H](CCCCN)NC(=O)[C@H](C(C)C)NC(=O)[C@H](CCCNC(=N)N)NC(=O)[C@H](CC(C)C)NC(=O)[C@H](CCCCN)NC(=O)[C@H](CCC(=O)O)NC(=O)[C@H](C)NC(=O)[C@@H]2CSSC[C@H](NC(=O)[C@H]([C@@H](C)O)NC(=O)[C@H](CCC(=O)O)NC(=O)CNC(=O)[C@H](Cc3c[nH]c4ccccc34)NC(=O)[C@H](CC(=O)O)NC(=O)[C@H](CC(=O)O)NC(=O)[C@H](CC(C)C)NC1=O)C(=O)N[C@@H](CCCCN)C(=O)NCC(=O)N2 [Compound 8] (cyclo(AEKLRVKELKKILDDWGETCKGC); disulfide 20-23)	comparable	
C[C@@H]1NC(=O)[C@@H]2CSSC[C@H](NC(=O)[C@H](CCC(=O)O)NC(=O)[C@H](CCC(=O)O)NC(=O)CNC(=O)[C@H](Cc3c[nH]c4ccccc34)NC(=O)[C@H]([C@@H](C)O)NC(=O)[C@H](CCCCN)NC(=O)[C@H](CCC(=O)O)NC1=O)C(=O)N[C@@H](CCCNC(=N)N)C(=O)N[C@@H](C)C(=O)N2 [Compound 12, WGEECRACAEKT] (cyclo(ACAEKTWGEECR); disulfide 2-11)	comparable	significantly improved stability
CC[C@H](C)[C@@H]1NC(=O)[C@H](CCC(N)=O)NC(=O)[C@H](CCCCN)NC(=O)[C@H](CC(C)C)NC(=O)[C@H](CCC(=O)O)NC(=O)[C@H](C)NC(=O)[C@H](C(C)C)NC(=O)[C@H](CCCNC(=N)N)NC(=O)[C@H](CCSC)NC(=O)[C@H](CCCCN)NC(=O)[C@H](CCC(=O)O)NC(=O)[C@H](C)NC(=O)[C@@H]2CSSC[C@H](NC(=O)[C@H](CCC(=O)O)NC(=O)[C@H](CCC(=O)O)NC(=O)CNC(=O)[C@H](Cc3c[nH]c4ccccc34)NC(=O)[C@H](CO)NC(=O)[C@H](Cc3c[nH]cn3)NC(=O)[C@H](CC(C)C)NC1=O)C(=O)N[C@@H](CCCNC(=N)N)C(=O)N[C@@H](C)C(=O)N2 [Compound 6] (cyclo(ACAEKMRVAELKQILHSWGEECR); disulfide 2-22)	comparable	significantly improved stability
CC[C@H](C)[C@@H]1NC(=O)[C@H](CO)NC(=O)[C@H](CCCCN)NC(=O)[C@H](CCC(=O)O)NC(=O)[C@H](C)NC(=O)[C@@H]2CSSC[C@H](NC(=O)[C@H]([C@@H](C)O)NC(=O)[C@H](CCC(=O)O)NC(=O)CNC(=O)[C@H](Cc3c[nH]c4ccccc34)NC(=O)[C@H](CC(=O)O)NC(=O)[C@H](CC(=O)O)NC(=O)[C@H](CC(C)C)NC1=O)C(=O)N[C@@H](CCCCN)C(=O)NCC(=O)N2 [Compound 10, KSILDDWGETCKGCAE] (cyclo(AEKSILDDWGETCKGC); disulfide 13-16)	comparable	
CC[C@H](C)[C@@H]1NC(=O)[C@H](CCC(N)=O)NC(=O)[C@H](CCCCN)NC(=O)[C@H](CC(C)C)NC(=O)[C@H](CCC(=O)O)NC(=O)[C@H](C)NC(=O)[C@H](C(C)C)NC(=O)[C@H](CCCNC(=N)N)NC(=O)[C@H](CCSC)NC(=O)[C@H](CCCCN)NC(=O)[C@H](CCCNC(=N)N)NC(=O)[C@H](CC(C)C)NC(=O)[C@H](CC(=O)O)NC(=O)[C@H](C(C)C)NC(=O)[C@H](CCC(=O)O)NC(=O)[C@H](C)NC(=O)[C@@H]2CSSC[C@H](NC(=O)[C@H](CCC(=O)O)NC(=O)[C@H](CCC(=O)O)NC(=O)CNC(=O)[C@H](Cc3c[nH]c4ccccc34)NC(=O)[C@H](CO)NC(=O)[C@H](Cc3c[nH]cn3)NC(=O)[C@H](CC(C)C)NC1=O)C(=O)N[C@@H](CCCNC(=N)N)C(=O)N[C@@H](C)C(=O)N2 [Compound 2] (cyclo(ACAEVDLRKMRVAELKQILHSWGEECR); disulfide 2-26)	comparable	significantly improved stability
C[C@@H]1NC(=O)[C@@H]2CSSC[C@H](NC(=O)[C@H]([C@@H](C)O)NC(=O)[C@H](CCC(=O)O)NC(=O)CNC(=O)[C@H](Cc3c[nH]c4ccccc34)NC(=O)[C@H](CO)NC(=O)[C@H](CCCCN)NC(=O)[C@H](CCC(=O)O)NC1=O)C(=O)N[C@@H](CCCCN)C(=O)NCC(=O)NCC(=O)N2 [Compound 26, WGETCKGGCAEKS] (cyclo(AEKSWGETCKGGC); disulfide 9-13)	comparable	significantly improved stability
C[C@@H]1NC(=O)[C@@H]2CSSC[C@H](NC(=O)[C@H]([C@@H](C)O)NC(=O)[C@H](CCC(=O)O)NC(=O)CNC(=O)[C@H](Cc3c[nH]c4ccccc34)NC(=O)[C@H](CO)NC(=O)[C@H](CCCCN)NC(=O)[C@H](CCC(=O)O)NC1=O)C(=O)N[C@@H](CCCCN)C(=O)NCC(=O)N2 [Compound 14, WGETCKGCAEKS] (cyclo(AEKSWGETCKGC); disulfide 9-12)	comparable	significantly improved stability
C[C@@H]1NC(=O)CNC(=O)[C@H](CCCNC(=N)N)NC(=O)[C@@H]2CSSC[C@H](NC1=O)C(=O)N[C@@H](C)C(=O)N[C@@H](CCC(=O)O)C(=O)N[C@@H](CCCCN)C(=O)N[C@@H]([C@@H](C)O)C(=O)N[C@@H](Cc1c[nH]c3ccccc13)C(=O)NCC(=O)N[C@@H](CCC(=O)O)C(=O)N[C@@H](CCC(=O)O)C(=O)N2 [Compound 24, WGEECRGACAEKT] (cyclo(ACAEKTWGEECRG); disulfide 2-11)	comparable	significantly improved stability
